Assay results: ChEMBL document CHEMBL1833788, “Selective water-soluble gelatinase inhibitor prodrugs” (J Med Chem, 2011); call rule not given here

Key:
[1] = Solubility of the compound in aqueous solution at 10 mg/ml by UV spectroscopy; assay type: physicochemical
Blood [2] = assay: Half life in human blood at 10 mM by reversed-phase HPLC/UV analysis; assay type: ADME, tissue-based; conditions: 10000 µM
[3] = Chemical stability of the compound in aqueous solution at 10 mg/ml by HPLC after 1 month; assay type: physicochemical; conditions: buffer, 730.5 h
Blood [4] = assay: Prodrug conversion in human blood assessed as release of 4-[4-((Thiiran-2-yl)methylsulphonyl)phenoxy]benzamine at 10 mM after 30 mins by reversed-phase HPLC/UV analysis; assay type: ADME, tissue-based; conditions: 0.5 h, 10000 µM
Plasma = assay: Half life in human plasma at 10 mM by reversed-phase HPLC/UV analysis; assay type: ADME, cell-free; conditions: 10000 µM
[5] = target: T1, Interstitial collagenase (Homo sapiens) (UniProt P03956); assay: Inhibition of human recombinant MMP1 catalytic domain assessed as hydrolysis of MOCAcPLGLA2pr(Dnp)AR-NH2 at 300 uM by fluorescence spectrofluorometry
T1 sequence (whole entry): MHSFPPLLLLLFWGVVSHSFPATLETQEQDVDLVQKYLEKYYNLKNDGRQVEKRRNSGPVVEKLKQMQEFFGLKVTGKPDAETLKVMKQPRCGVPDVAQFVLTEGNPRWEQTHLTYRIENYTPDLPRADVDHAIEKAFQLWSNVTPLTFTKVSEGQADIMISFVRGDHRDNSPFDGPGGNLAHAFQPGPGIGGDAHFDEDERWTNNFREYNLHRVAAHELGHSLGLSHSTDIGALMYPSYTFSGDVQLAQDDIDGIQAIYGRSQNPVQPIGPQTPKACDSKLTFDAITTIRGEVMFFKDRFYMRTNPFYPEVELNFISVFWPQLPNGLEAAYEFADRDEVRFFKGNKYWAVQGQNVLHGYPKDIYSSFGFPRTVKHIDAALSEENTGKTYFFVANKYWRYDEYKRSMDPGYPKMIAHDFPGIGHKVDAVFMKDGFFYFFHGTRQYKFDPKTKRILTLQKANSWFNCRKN

[6] = target: Stromelysin-1 (Homo sapiens) (UniProt P08254); assay: Inhibition of human recombinant MMP3 catalytic domain assessed as hydrolysis of MOCAcPLGLA2pr(Dnp)AR-NH2 at 300 uM fluorescence by spectrofluorometry
Liver = assay: Half life in mouse liver microsomes at 100 uM by reversed-phase HPLC/UV analysis; assay type: ADME, Microsome
Salmonella typhimurium [7] = assay: Induction of mutagenicity in Salmonella Typhimurium TA7001 to TA7006 at 1 mg/mL after 48 hrs by Ames assay in absence of rat liver S9 metabolic activation system; assay type: toxicity, organism-based; conditions: salmonella enterica subsp. enterica serovar typhimurium
Salmonella typhimurium [8] = assay: Induction of mutagenicity in Salmonella Typhimurium TA98 at 1 mg/mL after 48 hrs by Ames assay in absence of rat liver S9 metabolic activation system; assay type: toxicity, organism-based; conditions: salmonella enterica subsp. enterica serovar typhimurium, s9, 48 h
Liver microsomes [9] = assay: Half life in rat liver microsomes at 100 uM by reversed-phase HPLC/UV analysis; assay type: ADME, Microsome
Liver microsomes [10] = assay: Prodrug conversion in rat liver microsomes assessed as release of 4-(4-{[(1-oxidothiiran-2-yl)methyl]sulfonyl}phenoxy)aniline after 30 mins by HPLC/MS analysis; assay type: ADME, Microsome; conditions: 0.5 h
Liver microsomes [11] = assay: Prodrug conversion in rat liver microsomes assessed as release of 2-amino-5-(4-(thiiran-2-ylmethylsulfonyl)phenoxy)phenol after 30 mins by HPLC/MS analysis; assay type: ADME, Microsome; conditions: 0.5 h
Liver microsomes [12] = assay: Half life in human liver microsomes at 100 uM by reversed-phase HPLC/UV analysis; assay type: ADME, Microsome
Salmonella typhimurium [13] = assay: Induction of mutagenicity in Salmonella Typhimurium TA98 at 1 mg/mL after 48 hrs by Ames assay in presence of rat liver S9 metabolic activation system; assay type: toxicity, organism-based; conditions: salmonella enterica subsp. enterica serovar typhimurium, s9, 48 h
Salmonella typhimurium [14] = assay: Induction of mutagenicity in Salmonella Typhimurium TA7001 to TA7006 at 1 mg/mL after 48 hrs by Ames assay in presence of rat liver S9 metabolic activation system; assay type: toxicity, organism-based; conditions: salmonella enterica subsp. enterica serovar typhimurium, s9, 48 h
[15] = Apparent intrinsic clearance in human liver microsomes; assay type: ADME, Microsome
Mus musculus [16] = assay: Prodrug conversion in C57B1/6 mouse assessed as N-(4-(4-((Thiiran-2-ylmethyl)sulfonyl)phenoxy)phenyl) hydroxylamine level in urine at […], iv administered as single dose by reversed-phase LC/MS analysis; assay type: ADME, organism-based; conditions: in vivo
Mus musculus [17] = assay: Prodrug conversion in C57B1/6 mouse assessed as N-(4-(4-(thiiran-2-ylmethylsulfonyl)phenoxy)phenyl)acetamide level in plasma at […], iv administered as single bolus dose after 7 to 8 mins by reversed-phase LC/MS analysis; conditions: in vivo
Mus musculus [18] = assay: Prodrug conversion in C57B1/6 mouse assessed as N-(4-(4-(thiiran-2-ylmethylsulfonyl)phenoxy)phenyl)acetamide level in plasma at […], iv administered as single bolus dose after 62 to 66 mins by reversed-phase LC/MS analysis; conditions: in vivo
Mus musculus [19] = assay: AUC (0 to last) in C57B1/6 mouse plasma assessed as N-(4-(4-(thiiran-2-ylmethylsulfonyl)phenoxy)phenyl)acetamide level at […], iv administered as single bolus dose; assay type: ADME, organism-based; conditions: in vivo
Mus musculus [20] = assay: Terminal half life in C57B1/6 mouse plasma assessed as parent compound level at […], iv administered as single bolus dose; assay type: ADME, organism-based; conditions: in vivo
Mus musculus [21] = assay: AUC (0 to infinity) in C57B1/6 mouse plasma assessed as N-(4-(4-(thiiran-2-ylmethylsulfonyl)phenoxy)phenyl)acetamide level at […], iv administered as single bolus dose; assay type: ADME, organism-based; conditions: in vivo, BLD = below limit of detection
Mus musculus [22] = assay: Prodrug conversion in C57B1/6 mouse assessed as N-(4-(4-(thiiran-2-ylmethylsulfonyl)phenoxy)phenyl)acetamide level in plasma at […], iv administered as single bolus dose after 30 mins by reversed-phase LC/MS analysis; conditions: in vivo, 0.5 h
Mus musculus [23] = assay: AUC (0 to infinity) in C57B1/6 mouse plasma assessed as parent compound level at […], iv administered as single bolus dose; assay type: ADME, organism-based; conditions: in vivo
Mus musculus [24] = assay: Volume of distribution in C57B1/6 mouse plasma assessed as parent compound level at […], iv administered as single bolus dose; assay type: ADME, organism-based; conditions: in vivo
Mus musculus [25] = assay: Prodrug conversion in C57B1/6 mouse assessed as N-(4-(4-(thiiran-2-ylmethylsulfonyl)phenoxy)phenyl)acetamide level in plasma at […], iv administered as single bolus dose after 120 to 123 mins by reversed-phase LC/MS analysis; conditions: in vivo
Mus musculus [26] = assay: Prodrug conversion in C57B1/6 mouse assessed as N-(4-(4-(thiiran-2-ylmethylsulfonyl)phenoxy)phenyl)acetamide level in plasma at […], iv administered as single bolus dose after 2 to 3 mins by reversed-phase LC/MS analysis; conditions: in vivo
Mus musculus [27] = assay: Terminal half life in C57B1/6 mouse plasma assessed as N-(4-(4-(thiiran-2-ylmethylsulfonyl)phenoxy)phenyl)acetamide level at […], iv administered as single bolus dose; assay type: ADME, organism-based; conditions: in vivo, BLD = below limit of detection
Mus musculus [28] = assay: Clearance in C57B1/6 mouse plasma assessed as parent compound level at […], iv administered as single bolus dose; assay type: ADME, organism-based; conditions: in vivo
Mus musculus [29] = assay: Prodrug conversion in C57B1/6 mouse assessed as N-(4-(4-((Thiiran-2-ylmethyl)sulfonyl)phenoxy)phenyl) hydroxylamine level in plasma at […], iv administered as single dose by reversed-phase LC/MS analysis; assay type: ADME, organism-based; conditions: in vivo
Mus musculus [30] = assay: Distribution half life in C57B1/6 mouse plasma assessed as N-(4-(4-(thiiran-2-ylmethylsulfonyl)phenoxy)phenyl)acetamide level at […], iv administered as single bolus dose; assay type: ADME, organism-based; conditions: in vivo
Mus musculus [31] = assay: Prodrug conversion in C57B1/6 mouse assessed as N-(4-(4-(thiiran-2-ylmethylsulfonyl)phenoxy)phenyl)acetamide level in plasma at […], iv administered as single bolus dose after 11 to 12 mins by reversed-phase LC/MS analysis; conditions: in vivo
Rattus norvegicus = organism: Rattus norvegicus; assay: Hepatic blood flow in rat; assay type: ADME, organism-based, Liver
Homo sapiens = organism: Homo sapiens; assay: Hepatic blood flow in human; assay type: ADME, organism-based, Liver
Liver microsomes [32] = assay: Prodrug conversion in rat liver microsomes assessed as release of 4-(4-aminophenoxy)benzenesulfinic acid after 60 mins by HPLC/MS analysis; assay type: ADME, Microsome; conditions: 1 h
Liver microsomes [33] = assay: Prodrug conversion in rat liver microsomes assessed as release of 4-(4-((S)-2-amino-5-guanidinopentanamido)phenoxy)benzenesulfinic acid after 60 mins by HPLC/MS analysis; assay type: ADME, Microsome; conditions: 1 h
Liver microsomes [34] = assay: Prodrug conversion in rat liver microsomes assessed as release of N-(4-(4-(thiiran-2-ylmethylsulfonyl)phenoxy)phenyl)acetamide after 60 mins by HPLC/MS analysis; assay type: ADME, Microsome; conditions: 1 h
Mus musculus [35] = organism: Mus musculus; assay: Hepatic blood flow in mouse; assay type: ADME, organism-based, Liver
[36] = target: Matrix metalloproteinase-9 (Homo sapiens, UniProt P14780)
Sequence of Matrix metalloproteinase-9 (P14780 whole entry): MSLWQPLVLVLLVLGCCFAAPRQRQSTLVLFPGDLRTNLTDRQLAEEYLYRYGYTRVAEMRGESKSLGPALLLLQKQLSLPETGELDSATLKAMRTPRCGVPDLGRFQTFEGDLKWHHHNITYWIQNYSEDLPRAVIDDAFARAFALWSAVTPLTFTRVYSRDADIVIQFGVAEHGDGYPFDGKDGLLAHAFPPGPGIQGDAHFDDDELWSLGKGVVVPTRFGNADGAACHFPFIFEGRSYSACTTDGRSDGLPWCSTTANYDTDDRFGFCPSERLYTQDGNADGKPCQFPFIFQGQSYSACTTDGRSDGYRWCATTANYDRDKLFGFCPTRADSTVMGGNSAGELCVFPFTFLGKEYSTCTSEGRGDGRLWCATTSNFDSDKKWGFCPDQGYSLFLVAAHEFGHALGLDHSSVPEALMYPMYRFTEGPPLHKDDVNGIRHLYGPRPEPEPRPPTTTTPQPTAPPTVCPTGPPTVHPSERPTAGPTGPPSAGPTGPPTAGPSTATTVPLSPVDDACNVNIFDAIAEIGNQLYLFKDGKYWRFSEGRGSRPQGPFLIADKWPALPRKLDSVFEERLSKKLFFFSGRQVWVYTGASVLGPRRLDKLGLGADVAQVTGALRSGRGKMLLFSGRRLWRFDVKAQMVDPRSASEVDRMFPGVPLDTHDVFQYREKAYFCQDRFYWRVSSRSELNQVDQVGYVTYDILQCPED
Description: Inhibition of human recombinant MMP9 catalytic domain assessed as hydrolysis of MOCAcPLGLA2pr(Dnp)AR-NH2 by fluorescence spectrofluorometry

Sequence of Stromelysin-1 (Homo sapiens) (P08254 100-477 limits assumed): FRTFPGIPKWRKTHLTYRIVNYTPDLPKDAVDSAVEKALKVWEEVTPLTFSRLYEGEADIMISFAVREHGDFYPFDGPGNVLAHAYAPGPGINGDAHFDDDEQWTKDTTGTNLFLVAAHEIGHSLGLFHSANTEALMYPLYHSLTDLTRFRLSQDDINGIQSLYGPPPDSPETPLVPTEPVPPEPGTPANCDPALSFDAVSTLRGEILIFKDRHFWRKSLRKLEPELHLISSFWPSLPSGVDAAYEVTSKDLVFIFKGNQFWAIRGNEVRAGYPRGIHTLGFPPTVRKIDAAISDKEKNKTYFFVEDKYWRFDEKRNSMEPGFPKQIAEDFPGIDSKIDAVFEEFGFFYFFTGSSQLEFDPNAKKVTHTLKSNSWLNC

NCC(=O)Nc1ccc(Oc2ccc(S(=O)(=O)CC3CS3)cc2)cc1 (configuration not stated)
solubility [1]: > 10000 µg/mL | t1/2 (Blood [2]): 27.1 min | Stability [3]: Stable | Drug metabolism (Blood [4]): Active | t1/2 (Plasma): 32.4 min

Nc1ccc(Oc2ccc(S(=O)(=O)CC3CS3)cc2)cc1O (configuration not stated)
inhibition [5]: 11% | inhibition [6]: 54%

Nc1ccc(Oc2ccc(S(=O)(=O)CC3CS3)cc2)cc1 (configuration not stated)
t1/2 (Liver): 27.3 min | Activity (Salmonella typhimurium [7]): Non-toxic | Activity (Salmonella typhimurium [8]): Non-toxic | t1/2 (Liver microsomes [9]): 23.4 min | Drug metabolism (Liver microsomes [10]): Active | Drug metabolism (Liver microsomes [11]): Active | t1/2 (Liver microsomes [12]): > 60 min | Activity (Salmonella typhimurium [13]): Non-toxic | Activity (Salmonella typhimurium [14]): Non-toxic | CLint scaled [15]: < 10 mL/min/kg

Cl.Nc1ccc(Oc2ccc(S(=O)(=O)CC3CS3)cc2)cc1 (configuration not stated)
Drug metabolism (Mus musculus [16]): Not Active | Drug metabolism (Mus musculus [17]): 0.192 µM | Drug metabolism (Mus musculus [18]): 0.0273 µM | AUClast (Mus musculus [19]): 7.71 µM·min | beta t1/2 (Mus musculus [20]): 21 min | AUC (Mus musculus [21]): BLD | Drug metabolism (Mus musculus [22]): 0.0958 µM | AUC (Mus musculus [23]): 221 µM·min | Vd (Mus musculus [24]): 0.532 L/kg | Drug metabolism (Mus musculus [25]): 0.00277 µM | Drug metabolism (Mus musculus [26]): 0.197 µM | beta t1/2 (Mus musculus [27]): BLD | CL (Mus musculus [28]): 87.5 mL/min/kg | Drug metabolism (Mus musculus [29]): Not Active | alphat1/2 (Mus musculus [30]): 5.1 min | Drug metabolism (Mus musculus [31]): 0.15 µM

N=C(N)NCCC[C@H](N)C(=O)Nc1ccc(Oc2ccc(S(=O)(=O)CC3CS3)cc2)cc1 (some centres not stated)
solubility [1]: > 10000 µg/mL | t1/2 (Liver): > 60 min | QH (Rattus norvegicus): 66 mL/min/kg | Activity (Salmonella typhimurium [7]): Non-toxic | t1/2 (Blood [2]): 25.4 min | Stability [3]: Stable | Drug metabolism (Blood [4]; TDE = time-dependent effect): tde | QH (Homo sapiens): 21 mL/min/kg | Drug metabolism (Liver microsomes [32]): Active | Activity (Salmonella typhimurium [8]): Non-toxic | Drug metabolism (Liver microsomes [33]): Active | t1/2 (Liver microsomes [9]): 59.3 min | Drug metabolism (Liver microsomes [34]): Active | t1/2 (Liver microsomes [12]): > 60 min | t1/2 (Plasma): 29.5 min | Activity (Salmonella typhimurium [13]): Non-toxic | Activity (Salmonella typhimurium [14]): Non-toxic | QH (Mus musculus [35]): 86 mL/min/kg

N[C@@H](CCC(=O)O)C(=O)Nc1ccc(Oc2ccc(S(=O)(=O)CC3CS3)cc2)cc1 (some centres not stated)
solubility [1]: > 10000 µg/mL | t1/2 (Blood [2]): 27.9 min | Ki [36]: 4.3 µM | Stability [3]: Stable | Drug metabolism (Blood [4]): Active | t1/2 (Plasma): 32.8 min
